# Test results as given in patent publication US8889712B2, “IAP antagonists” (Bristol-Myers Squibb Company, priority 2012, dated 2014).
# What was measured:
# XIAP BIR2-3 = molecular target: T1, XIAP BIR2-3 (Homo sapiens, UniProt P98170, C202A/C213G); experiment: XIAP-BIR2-3 dimeric SMAC Peptide Homogeneous Time Resolved Fluorescence (HTRF) Assay; assay type: binding; conditions: 0.5 nM N-His-BIR2-3 (125-356, C202A/C213G, XIAP), 20 nM fluorescein labeled dimeric SMAC peptide; HTRF signal; read-out: XIAP BIR2-3 IC50
# T1 construct: His-BIR2-3 (125-356, C202A/C213G, XIAP)
# T1 sequence (P98170 125-356 C202A/C213G): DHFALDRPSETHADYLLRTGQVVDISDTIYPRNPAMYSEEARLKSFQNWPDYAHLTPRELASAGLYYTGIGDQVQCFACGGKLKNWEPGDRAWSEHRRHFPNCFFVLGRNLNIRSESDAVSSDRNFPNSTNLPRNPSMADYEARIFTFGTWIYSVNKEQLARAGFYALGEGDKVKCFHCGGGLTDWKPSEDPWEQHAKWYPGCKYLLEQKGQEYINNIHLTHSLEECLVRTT
# Description: B. […] Assays were performed in black, flat-bottom, 384-well plates. […] Compounds were dissolved at 3 mM in dimethylsulfoxide (DMSO) and evaluated at eleven serially diluted concentrations. IC50 and Ki values were derived by non-linear regression analysis.
# XIAP BIR3 = molecular target: T2, XIAP BIR3 (Homo sapiens, UniProt P98170); experiment: XIAP-BIR3/SMAC Homogeneous Time Resolved Fluorescence (HTRF) Assay; assay type: binding; conditions: 1 nM N-His-BIR3 (241-356, XIAP), 5 nM fluorescein labeled SMAC peptide; HTRF signal; read-out: XIAP BIR3 IC50
# T2 construct: His-BIR3 (241-356, XIAP)
# T2 sequence (P98170 241-356): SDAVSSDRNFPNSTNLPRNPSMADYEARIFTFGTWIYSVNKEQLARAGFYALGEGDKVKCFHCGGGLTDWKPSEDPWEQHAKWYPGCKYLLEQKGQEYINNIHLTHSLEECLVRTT
# Method in brief: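 Competition HTRF between XIAP-BIR3 and SMAC; reaction 60 min at room temperature, then anti-6×His-terbium Fab detection for a further 30 min.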
Structure (SMILES),IC50 (XIAP BIR2-3),IC50 (XIAP BIR3)
"CN[C@@H](C)C(=O)N[C@H](C(=O)N1C[C@@H](c2ccc3c(c2)CN(C(=O)[C@@H](NC(=O)[C@H](C)NC)C(C)(C)SCC(=O)NC(CO)CO)[C@H](C(=O)N[C@@H]2CCCc4ccccc42)C3)C[C@H]1C(=O)N[C@@H]1CCCc2ccccc21)C(C)(C)C [Example 31, (S)-2-((R)-3-((2-((1,3-Dihydroxypropan-2-yl)amino)-2-oxoethyl)thio)-3-methyl-2-((S)-2-(methylamino)propanamido)butanoyl)-7-((3R,5S)-1-((S)-3,3-dimethyl-2-((S)-2-(methylamino)propanamido)butanoyl)-5-(((R)-1,2,3,4-tetrahydronaphthalen-1-yl)carbamoyl)pyrrolidin-3-yl)-N-((R)-1,2,3,4-tetrahydronaphthalen-1-yl)-1,2,3,4-tetrahydroisoquinoline-3-carboxamide]",1.2 nM,13.8 nM
"CN[C@@H](C)C(=O)N[C@H](C(=O)N1C[C@@H](c2ccc3c(c2)CN(C(=O)[C@@H](NC(=O)[C@H](C)NC)C(C)(C)C)[C@H](C(=O)N[C@@H]2CCCc4ccccc42)C3)C[C@H]1C(=O)N[C@@H](Cc1ccccc1)C(=O)N(C)CCC(C)C)C(C)(C)C [Example 53, (S)-2-((S)-3,3-Dimethyl-2-((S)-2-(methylamino)propanamido)butanoyl)-7-((3R,5S)-1-((S)-3,3-dimethyl-2-((S)-2-(methylamino)propanamido)butanoyl)-5-(((S)-1-(isopentyl(methyl)amino)-1-oxo-3-phenylpropan-2-yl)carbamoyl)pyrrolidin-3-yl)-N-((R)-1,2,3,4-tetrahydronaphthalen-1-yl)-1,2,3,4-tetrahydroisoquinoline-3-carboxamide]",86.9 nM,53.9 nM
"CCC(CC)[C@H](NC(=O)[C@H](C)NC)C(=O)N1C[C@@H](NC(=O)c2ccc3c(c2)CN(C(=O)[C@@H](NC(=O)[C@H](C)NC)C(C)(C)C)[C@H](C(=O)N[C@@H]2CCCc4ccccc42)C3)C[C@H]1C(=O)N[C@@H]1CCCc2ccccc21 [Example 17, (S)-2-((S)-3,3-Dimethyl-2-((S)-2-(methylamino)propanamido)butanoyl)-N^7-((3S,5S)-1-((S)-3-ethyl-2-((S)-2-(methylamino)propanamido)pentanoyl)-5-(((R)-1,2,3,4-tetrahydronaphthalen-1-yl)carbamoyl)pyrrolidin-3-yl)-N^3-((R)-1,2,3,4-tetrahydronaphthalen-1-yl)-1,2,3,4-tetrahydroisoquinoline-3,7-dicarboxamide]",2 nM,2 nM
"CN[C@@H](C)C(=O)N[C@H](C(=O)N1C[C@@H](NC(=O)c2ccc3c(c2)CN(C(=O)[C@@H](NC(=O)[C@@H](NC)C2CC2)C(C)(C)C)[C@H](C(=O)N[C@@H]2CCCc4ccccc42)C3)C[C@H]1C(=O)N[C@@H]1CCCc2ccccc21)C(C)(C)C [Example 5, (S)-2-((S)-2-((S)-2-Cyclopropyl-2-(methylamino)acetamido)-3,3-dimethylbutanoyl)-N^7-((3S,5S)-1-((S)-3,3-dimethyl-2-((S)-2-(methylamino)propanamido)butanoyl)-5-(((R)-1,2,3,4-tetrahydronaphthalen-1-yl)carbamoyl)pyrrolidin-3-yl)-N^3-((R)-1,2,3,4-tetrahydronaphthalen-1-yl)-1,2,3,4-tetrahydroisoquinoline-3,7-dicarboxamide]",13 nM,14 nM
CCN[C@@H](C)C(=O)N[C@H](C(=O)N1Cc2cc(C(=O)N[C@H]3C[C@@H](C(=O)NC4CCCc5ccccc54)N(C(=O)[C@@H](NC(=O)[C@H](C)NC)C(C)(C)C)C3)ccc2C[C@H]1C(=O)NC1CCCc2ccccc21)C(C)(C)C (stereo partly drawn) [Example 2],6 nM,9 nM
"CN[C@@H](C)C(=O)N[C@H](C(=O)N1C[C@@H](c2ccc3c(c2)CN(C(=O)[C@@H](NC(=O)[C@H](C)NC)C(C)(C)C)[C@H](C(=O)N[C@@H]2CCOc4ccccc42)C3)C[C@H]1C(=O)N[C@@H]1CCCc2ccccc21)C(C)(C)C [Example 33, (S)—N—((R)—Chroman-4-yl)-2-((S)-3,3-dimethyl-2-((S)-2-(methylamino)propanamido)butanoyl)-7-((3R,5S)-1-((S)-3,3-dimethyl-2-((S)-2-(methylamino)propanamido)butanoyl)-5-(((R)-1,2,3,4-tetrahydronaphthalen-1-yl)carbamoyl)pyrrolidin-3-yl)-1,2,3,4-tetrahydroisoquinoline-3-carboxamide]",1.7 nM,1.8 nM
"CN[C@@H](C)C(=O)N[C@H](C(=O)N1C[C@@H](c2ccc3c(c2)CN(C(=O)[C@@H](NC(=O)[C@H](C)NC)C(C)(C)C)[C@H](C(=O)N[C@@H]2CCCc4ccccc42)C3)C[C@H]1C(=O)N[C@@H](Cc1ccccc1)C(=O)N(C1CC1)C1CC1)C(C)(C)C [Example 63, (S)-7-((3R,5S)-5-(((S)-1-(Dicyclopropylamino)-1-oxo-3-phenylpropan-2-yl)carbamoyl)-1-((S)-3,3-dimethyl-2-((S)-2-(methylamino)propanamido)butanoyl)pyrrolidin-3-yl)-2-((S)-3,3-dimethyl-2-((S)-2-(methylamino)propanamido)butanoyl)-N-((R)-1,2,3,4-tetrahydronaphthalen-1-yl)-1,2,3,4-tetrahydroisoquinoline-3-carboxamide]",3 nM,16.7 nM
"CCNC(=O)[C@H](Cc1ccccc1)NC(=O)[C@@H]1C[C@H](c2ccc3c(c2)CN(C(=O)[C@@H](NC(=O)[C@H](C)NC)C(C)(C)C)[C@H](C(=O)N[C@@H]2CCCc4ccccc42)C3)CN1C(=O)[C@@H](NC(=O)[C@H](C)NC)C(C)(C)C [Example 51, (S)-2-((S)-3,3-Dimethyl-2-((S)-2-(methylamino)propanamido)butanoyl)-7-((3R,5S)-1-((S)-3,3-dimethyl-2-((S)-2-(methylamino)propanamido)butanoyl)-5-(((S)-1-(ethylamino)-1-oxo-3-phenylpropan-2-yl)carbamoyl)pyrrolidin-3-yl)-N-((R)-1,2,3,4-tetrahydronaphthalen-1-yl)-1,2,3,4-tetrahydroisoquinoline-3-carboxamide]",9.6 nM,19.4 nM
"CN[C@@H](C)C(=O)N[C@@H](CC1CCCCC1)C(=O)N1Cc2cc(C(=O)N[C@H]3C[C@@H](C(=O)N[C@@H]4CCCc5ccccc54)N(C(=O)[C@@H](NC(=O)[C@H](C)NC)C(C)(C)C)C3)ccc2C[C@H]1C(=O)N[C@@H]1CCCc2ccccc21 [Example 9, (S)-2-((S)-3-Cyclohexyl-2-((S)-2-(methylamino)propanamido)propanoyl)-N^7-((3S,5S)-1-((S)-3,3-dimethyl-2-((S)-2-(methylamino)propanamido)butanoyl)-5-(((R)-1,2,3,4-tetrahydronaphthalen-1-yl)carbamoyl)pyrrolidin-3-yl)-N^3-((R)-1,2,3,4-tetrahydronaphthalen-1-yl)-1,2,3,4-tetrahydroisoquinoline-3,7-dicarboxamide]",3 nM,33 nM
"CN[C@@H](C)C(=O)N[C@H](C(=O)N1Cc2cc([C@H]3C[C@@H](C(=O)N[C@@H]4CCCc5ccccc54)N(C(=O)[C@@H](NC(=O)[C@H](C)NC)C(C)(C)C)C3)ccc2C[C@H]1C(=O)N[C@@H](Cc1ccccc1)C(=O)OC)C(C)(C)C [Example 40, (S)-Methyl 2-((S)-2-((S)-3,3-dimethyl-2-((S)-2-(methylamino)propanamido)butanoyl)-7-((3R,5S)-1-((S)-3,3-dimethyl-2-((S)-2-(methylamino)propanamido)butanoyl)-5-(((R)-1,2,3,4-tetrahydronaphthalen-1-yl)carbamoyl)pyrrolidin-3-yl)-1,2,3,4-tetrahydroisoquinoline-3-carboxamido)-3-phenylpropanoate]",0.9 nM,1.5 nM
"CN[C@@H](C)C(=O)N[C@H](C(=O)N1C[C@@H](c2ccc3c(c2)CN(C(=O)[C@@H](NC(=O)[C@H](C)NC)C(C)(C)C)[C@H](C(=O)N[C@@H]2CCCc4ccccc42)C3)C[C@H]1C(=O)N[C@H](COC)Cc1ccccc1)C(C)(C)C [Example 75, (S)-2-((S)-3,3-Dimethyl-2-((S)-2-(methylamino)propanamido)butanoyl)-7-((3R,5S)-1-((S)-3,3-dimethyl-2-((S)-2-(methylamino)propanamido)butanoyl)-5-(((S)-1-methoxy-3-phenylpropan-2-yl)carbamoyl)pyrrolidin-3-yl)-N-((R)-1,2,3,4-tetrahydronaphthalen-1-yl)-1,2,3,4-tetrahydroisoquinoline-3-carboxamide]",3 nM,14.5 nM
"CN[C@@H](C)C(=O)N[C@H](C(=O)N1C[C@@H](c2ccc3c(c2)CN(C(=O)[C@@H](NC(=O)[C@H](C)NC)C(C)(C)C)[C@H](C(=O)N[C@@H]2CCCc4ccccc42)C3)C[C@H]1C(=O)N[C@@H](Cc1ccccc1)C(=O)NCCC(C)C)C(C)(C)C [Example 69, (S)-2-((S)-3,3-Dimethyl-2-((S)-2-(methylamino)propanamido)butanoyl)-7-((3R,5S)-1-((S)-3,3-dimethyl-2-((S)-2-(methylamino)propanamido)butanoyl)-5-(((S)-1-(isopentylamino)-1-oxo-3-phenylpropan-2-yl)carbamoyl)pyrrolidin-3-yl)-N-((R)-1,2,3,4-tetrahydronaphthalen-1-yl)-1,2,3,4-tetrahydroisoquinoline-3-carboxamide]",1.5 nM,8.6 nM
